# ± gives the expanded uncertainty stated by the source.
# Assay: isobaric coefficient of expansion
# Settings: 288.15 K; 5000 kPa; Liquid; Microcalorimeter
row,Compound,isobaric coefficient of expansion
1,CCn1cc[n+](C)c1.F[B-](F)(F)F [1-ethyl-3-methylimidazolium tetrafluoroborate],0.000614 ± 1.5e-05 1/K
2,CCCCCC[n+]1ccn(C)c1.O=S(=O)([N-]S(=O)(=O)C(F)(F)F)C(F)(F)F,0.000668 ± 1.6e-05 1/K
3,CCCCCCCC[n+]1ccn(C)c1.F[B-](F)(F)F [1-methyl-3-octylimidazolium tetrafluoroborate],0.000616 ± 1.2e-05 1/K
4,CCCC[n+]1cccc(C)c1.F[B-](F)(F)F [1-butyl-3-methylpyridinium tetrafluoroborate],0.0006 ± 1.5e-05 1/K
5,CCCCCCn1cc[n+](C)c1.F[B-](F)(F)F [1-hexyl-3-methylimidazolium tetrafluoroborate],0.000616 ± 1.5e-05 1/K
6,CCn1cc[n+](C)c1.O=S(=O)([N-]S(=O)(=O)C(F)(F)F)C(F)(F)F,0.000664 ± 1.6e-05 1/K

# Same assay, conditions: 288.15 K; 10000 kPa; Liquid; Microcalorimeter
row,Compound,isobaric coefficient of expansion
1,CCn1cc[n+](C)c1.F[B-](F)(F)F [1-ethyl-3-methylimidazolium tetrafluoroborate],0.000602 ± 1.5e-05 1/K
2,CCCCCC[n+]1ccn(C)c1.O=S(=O)([N-]S(=O)(=O)C(F)(F)F)C(F)(F)F,0.000658 ± 1.6e-05 1/K
3,CCCCCCCC[n+]1ccn(C)c1.F[B-](F)(F)F [1-methyl-3-octylimidazolium tetrafluoroborate],0.000606 ± 1.2e-05 1/K
4,CCCC[n+]1cccc(C)c1.F[B-](F)(F)F [1-butyl-3-methylpyridinium tetrafluoroborate],0.000593 ± 1.5e-05 1/K
5,CCCCCCn1cc[n+](C)c1.F[B-](F)(F)F [1-hexyl-3-methylimidazolium tetrafluoroborate],0.000606 ± 1.5e-05 1/K
6,CCn1cc[n+](C)c1.O=S(=O)([N-]S(=O)(=O)C(F)(F)F)C(F)(F)F,0.000653 ± 1.6e-05 1/K

# Same assay, conditions: 288.15 K; 15000 kPa; Liquid; Microcalorimeter
row,Compound,isobaric coefficient of expansion
1,CCn1cc[n+](C)c1.F[B-](F)(F)F [1-ethyl-3-methylimidazolium tetrafluoroborate],0.000591 ± 1.4e-05 1/K
2,CCCCCC[n+]1ccn(C)c1.O=S(=O)([N-]S(=O)(=O)C(F)(F)F)C(F)(F)F,0.000647 ± 1.6e-05 1/K
3,CCCCCCCC[n+]1ccn(C)c1.F[B-](F)(F)F [1-methyl-3-octylimidazolium tetrafluoroborate],0.0006 ± 1.2e-05 1/K
4,CCCC[n+]1cccc(C)c1.F[B-](F)(F)F [1-butyl-3-methylpyridinium tetrafluoroborate],0.000588 ± 1.4e-05 1/K
5,CCCCCCn1cc[n+](C)c1.F[B-](F)(F)F [1-hexyl-3-methylimidazolium tetrafluoroborate],0.0006 ± 1.5e-05 1/K
6,CCn1cc[n+](C)c1.O=S(=O)([N-]S(=O)(=O)C(F)(F)F)C(F)(F)F,0.000646 ± 1.6e-05 1/K

# Same assay, conditions: 288.15 K; 20000 kPa; Liquid; Microcalorimeter
row,Compound,isobaric coefficient of expansion
1,CCn1cc[n+](C)c1.F[B-](F)(F)F [1-ethyl-3-methylimidazolium tetrafluoroborate],0.000587 ± 1.4e-05 1/K
2,CCCCCC[n+]1ccn(C)c1.O=S(=O)([N-]S(=O)(=O)C(F)(F)F)C(F)(F)F,0.000637 ± 1.6e-05 1/K
3,CCCCCCCC[n+]1ccn(C)c1.F[B-](F)(F)F [1-methyl-3-octylimidazolium tetrafluoroborate],0.000593 ± 1.2e-05 1/K
4,CCCC[n+]1cccc(C)c1.F[B-](F)(F)F [1-butyl-3-methylpyridinium tetrafluoroborate],0.000585 ± 1.4e-05 1/K
5,CCCCCCn1cc[n+](C)c1.F[B-](F)(F)F [1-hexyl-3-methylimidazolium tetrafluoroborate],0.000593 ± 1.5e-05 1/K
6,CCn1cc[n+](C)c1.O=S(=O)([N-]S(=O)(=O)C(F)(F)F)C(F)(F)F,0.00064 ± 1.6e-05 1/K

# Same assay, conditions: 288.15 K; 25000 kPa; Liquid; Microcalorimeter
row,Compound,isobaric coefficient of expansion
1,CCn1cc[n+](C)c1.F[B-](F)(F)F [1-ethyl-3-methylimidazolium tetrafluoroborate],0.000581 ± 1.4e-05 1/K
2,CCCCCC[n+]1ccn(C)c1.O=S(=O)([N-]S(=O)(=O)C(F)(F)F)C(F)(F)F,0.00063 ± 1.5e-05 1/K
3,CCCCCCCC[n+]1ccn(C)c1.F[B-](F)(F)F [1-methyl-3-octylimidazolium tetrafluoroborate],0.000586 ± 1.2e-05 1/K
4,CCCC[n+]1cccc(C)c1.F[B-](F)(F)F [1-butyl-3-methylpyridinium tetrafluoroborate],0.000581 ± 1.4e-05 1/K
5,CCCCCCn1cc[n+](C)c1.F[B-](F)(F)F [1-hexyl-3-methylimidazolium tetrafluoroborate],0.000586 ± 1.4e-05 1/K
6,CCn1cc[n+](C)c1.O=S(=O)([N-]S(=O)(=O)C(F)(F)F)C(F)(F)F,0.000631 ± 1.5e-05 1/K

# Same assay, conditions: 288.15 K; 30000 kPa; Liquid; Microcalorimeter
row,Compound,isobaric coefficient of expansion
1,CCn1cc[n+](C)c1.F[B-](F)(F)F [1-ethyl-3-methylimidazolium tetrafluoroborate],0.000574 ± 1.4e-05 1/K
2,CCCCCC[n+]1ccn(C)c1.O=S(=O)([N-]S(=O)(=O)C(F)(F)F)C(F)(F)F,0.00062 ± 1.5e-05 1/K
3,CCCCCCCC[n+]1ccn(C)c1.F[B-](F)(F)F [1-methyl-3-octylimidazolium tetrafluoroborate],0.000579 ± 1.2e-05 1/K
4,CCCC[n+]1cccc(C)c1.F[B-](F)(F)F [1-butyl-3-methylpyridinium tetrafluoroborate],0.000575 ± 1.4e-05 1/K
5,CCCCCCn1cc[n+](C)c1.F[B-](F)(F)F [1-hexyl-3-methylimidazolium tetrafluoroborate],0.000579 ± 1.4e-05 1/K
6,CCn1cc[n+](C)c1.O=S(=O)([N-]S(=O)(=O)C(F)(F)F)C(F)(F)F,0.000623 ± 1.5e-05 1/K

# Same assay, conditions: 288.15 K; 35000 kPa; Liquid; Microcalorimeter
row,Compound,isobaric coefficient of expansion
1,CCn1cc[n+](C)c1.F[B-](F)(F)F [1-ethyl-3-methylimidazolium tetrafluoroborate],0.000569 ± 1.4e-05 1/K
2,CCCCCC[n+]1ccn(C)c1.O=S(=O)([N-]S(=O)(=O)C(F)(F)F)C(F)(F)F,0.000614 ± 1.5e-05 1/K
3,CCCCCCCC[n+]1ccn(C)c1.F[B-](F)(F)F [1-methyl-3-octylimidazolium tetrafluoroborate],0.000572 ± 1.1e-05 1/K
4,CCCC[n+]1cccc(C)c1.F[B-](F)(F)F [1-butyl-3-methylpyridinium tetrafluoroborate],0.000569 ± 1.4e-05 1/K
5,CCCCCCn1cc[n+](C)c1.F[B-](F)(F)F [1-hexyl-3-methylimidazolium tetrafluoroborate],0.000572 ± 1.4e-05 1/K
6,CCn1cc[n+](C)c1.O=S(=O)([N-]S(=O)(=O)C(F)(F)F)C(F)(F)F,0.000616 ± 1.5e-05 1/K

# Same assay, conditions: 288.15 K; 40000 kPa; Liquid; Microcalorimeter
row,Compound,isobaric coefficient of expansion
1,CCn1cc[n+](C)c1.F[B-](F)(F)F [1-ethyl-3-methylimidazolium tetrafluoroborate],0.000561 ± 1.4e-05 1/K
2,CCCCCC[n+]1ccn(C)c1.O=S(=O)([N-]S(=O)(=O)C(F)(F)F)C(F)(F)F,0.000604 ± 1.5e-05 1/K
3,CCCCCCCC[n+]1ccn(C)c1.F[B-](F)(F)F [1-methyl-3-octylimidazolium tetrafluoroborate],0.000565 ± 1.1e-05 1/K
4,CCCC[n+]1cccc(C)c1.F[B-](F)(F)F [1-butyl-3-methylpyridinium tetrafluoroborate],0.000564 ± 1.4e-05 1/K
5,CCCCCCn1cc[n+](C)c1.F[B-](F)(F)F [1-hexyl-3-methylimidazolium tetrafluoroborate],0.000565 ± 1.4e-05 1/K
6,CCn1cc[n+](C)c1.O=S(=O)([N-]S(=O)(=O)C(F)(F)F)C(F)(F)F,0.000606 ± 1.5e-05 1/K

# Same assay, conditions: 288.15 K; 45000 kPa; Liquid; Microcalorimeter
row,Compound,isobaric coefficient of expansion
1,CCn1cc[n+](C)c1.F[B-](F)(F)F [1-ethyl-3-methylimidazolium tetrafluoroborate],0.000556 ± 1.4e-05 1/K
2,CCCCCC[n+]1ccn(C)c1.O=S(=O)([N-]S(=O)(=O)C(F)(F)F)C(F)(F)F,0.000597 ± 1.5e-05 1/K
3,CCCCCCCC[n+]1ccn(C)c1.F[B-](F)(F)F [1-methyl-3-octylimidazolium tetrafluoroborate],0.000558 ± 1.1e-05 1/K
4,CCCC[n+]1cccc(C)c1.F[B-](F)(F)F [1-butyl-3-methylpyridinium tetrafluoroborate],0.000562 ± 1.4e-05 1/K
5,CCCCCCn1cc[n+](C)c1.F[B-](F)(F)F [1-hexyl-3-methylimidazolium tetrafluoroborate],0.000558 ± 1.4e-05 1/K
6,CCn1cc[n+](C)c1.O=S(=O)([N-]S(=O)(=O)C(F)(F)F)C(F)(F)F,0.000601 ± 1.5e-05 1/K

# Same assay, conditions: 288.15 K; 50000 kPa; Liquid; Microcalorimeter
row,Compound,isobaric coefficient of expansion
1,CCn1cc[n+](C)c1.F[B-](F)(F)F [1-ethyl-3-methylimidazolium tetrafluoroborate],0.000554 ± 1.4e-05 1/K
2,CCCCCC[n+]1ccn(C)c1.O=S(=O)([N-]S(=O)(=O)C(F)(F)F)C(F)(F)F,0.000592 ± 1.5e-05 1/K
3,CCCCCCCC[n+]1ccn(C)c1.F[B-](F)(F)F [1-methyl-3-octylimidazolium tetrafluoroborate],0.000555 ± 1.1e-05 1/K
4,CCCC[n+]1cccc(C)c1.F[B-](F)(F)F [1-butyl-3-methylpyridinium tetrafluoroborate],0.000558 ± 1.4e-05 1/K
5,CCCCCCn1cc[n+](C)c1.F[B-](F)(F)F [1-hexyl-3-methylimidazolium tetrafluoroborate],0.000555 ± 1.4e-05 1/K
6,CCn1cc[n+](C)c1.O=S(=O)([N-]S(=O)(=O)C(F)(F)F)C(F)(F)F,0.000597 ± 1.5e-05 1/K

# Source: the NIST ThermoML archive (doi:10.1021/je900482x)
